Data: PMC7997032, “Organic synthesis and anti-influenza A virus activity of cyclobakuchiols A, B, C, and D” (PLoS ONE, 2021)
Where “and” joins values, the source holds several entries; their conditions need not be identical. Identical values can stand only once.

How the values were obtained:
[1] = test system: A/WSN/33 virus; assay: Influenza A viral growth assay (viral titer of culture media); assay type: cell-based, influenza A H1N1 virus; settings: A/WSN/33 (WSN), 12.5uM; for viral titer of culture media, individual replicate: replicates of #1-3 exp; for viral titer of culture media, ave: average of #1-3 exp (n=9)
[2] = test system: A/PR/8/34 virus; assay: as above; assay type: cell-based, influenza A H1N1 virus; design: viral titer of culture media, individual replicate / viral titer of culture media, ave: unit not given here; settings: A/PR/8/34 (PR8), 12.5uM; for viral titer of culture media, individual replicate: replicates of #1-3 exp; for viral titer of culture media, ave: average of #1-3 exp (n=9)
[3] = test system: MDCK cells; assay: MTT assay (cytotoxicity against MDCK cells); assay type: cell-based, canine; settings: MDCK cells; for MTT, DMSO as 100 (DMSOを 100として), ave / MTT 72h AVE (DMSO = 100): 72h; for MTT, DMSO as 100 (DMSOを 100として), ave: mean of 5 wells (200409 #1 and #3); for MTT 72h AVE (DMSO = 100): summary AVE; for MTT 24h, AVE (DMSO as 100) / MTT 24h, 570-650nm, DMSO as 100, ave: mean of 5 wells from 3 experiments; for MTT 24h, AVE (DMSO as 100): relative to DMSO = 100; for MTT 24h, 570-650nm, DMSO as 100, single replicate: individual wells (200331; 200403 #2 1,2; 200403 #3 1,2); for 570-650nm (MTT absorbance, single wells) / 570-650nm ave (mean MTT absorbance of 5 wells) / MTT absorbance with DMSO as 100 (DMSOを 100として), single wells: MTT 72h; for 570-650nm (MTT absorbance, single wells): experiments #1-#3, duplicate wells; for MTT absorbance with DMSO as 100 (DMSOを 100として), single wells: relative to mean of DMSO
Experimental: 1–5 (0.8–100 μM) were prepared in DMSO (100 μM, 1%; 50 μM, 0.5%; 25 μM, 0.25%; 12.5 μM, 0.125%; 6.3 μM, 0.063%; 3.1 μM, 0.031%; 1.6 μM, 0.016%; 0.8 μM, 0.008%) and mixed with infection medium (DMEM supplemented with 1% bovine serum albumin (BSA; Wako), P/S and 4 mM L-glutamine). The resulting mixture was added to the cells and incubated for 24 or 72 h at 37°C in the presence of 5% CO2. After incubation, cell viability was determined using an MTT cell count kit (Nacalai Tesque) according to the manufacturer’s instructions, as previously described.

In the case of `C=C[C@@](C)(/C=C/c1ccc(O)cc1)CCC=C(C)C` [天然型バクチオール], the “viral titer of culture media, individual replicate” value (“viral titer … individual replicate” for short) ([1]; 12h) was 900 and 300 and 1100 and 30000 (2×) and 10000 (3×) and 50000, the “viral titer of culture media, ave” value ([1]; 24h) was 14411111 and the “viral titer … individual replicate” value ([1]; 24h) was 300000 and 1500000 and 900000 and 7000000 and 16000000 and 9000000 and 20000000 and 5000000 and 70000000. The “viral titer of culture media, ave” value ([1]; 48h) was 220000000, the “viral titer … individual replicate” value ([1]; 48h) was 50000000 and 74000000 and 26000000 and 320000000 and 280000000 and 330000000 and 260000000 and 290000000 and 350000000 and the “viral titer of culture media, ave” value ([1]; 72h) was 150111111. The “viral titer … individual replicate” value ([1]; 72h) was 10000000 and 29000000 and 52000000 and 150000000 and 240000000 and 210000000 and 200000000 (2×) and 260000000, the “viral titer … individual replicate” value ([2]; 12h) was 10000 (4×) and 30000 (3×) and 40000 (2×) and the “viral titer of culture media, ave” value ([2]; 24h) was 22222.2. The “viral titer … individual replicate” value ([2]; 24h) was 50000 and 10000 (5×) and 40000 (2×) and 20000, the “viral titer of culture media, ave” value ([2]; 48h) was 25555.6 and the “viral titer … individual replicate” value ([2]; 48h) was 50000 and 20000 and 40000 and 10000 (3×) and 30000 (3×). The “viral titer of culture media, ave” value ([2]; 72h) was 31111.1 and the “viral titer … individual replicate” value ([2]; 72h) was 30000 (2×) and 20000 (2×) and 40000 (2×) and 10000 (2×) and 80000.
With `C=C[C@]1(C)CC[C@@H](C(=C)C)[C@H](c2ccc(O)cc2)C1` [(1R,3S,4S)-cyclobakuchiol B] the “viral titer of culture media, ave” value ([1]; 12h) was 12633.3, the “viral titer … individual replicate” value ([1]; 12h) was 1000 (2×) and 1700 and 10000 (3×) and 20000 (2×) and 40000 and the “viral titer of culture media, ave” value ([1]; 24h) was 25455556. For the same compound, the “viral titer … individual replicate” value ([1]; 24h) was 2000000 (2×) and 300000 and 80000000 and 30000000 and 16000000 and 40000000 and 8800000 and 50000000, the “viral titer of culture media, ave” value ([1]; 48h) was 275666667 and the “viral titer … individual replicate” value ([1]; 48h) was 100000000 and 160000000 and 61000000 and 430000000 and 420000000 and 440000000 and 180000000 and 300000000 and 390000000. The “viral titer of culture media, ave” value ([1]; 72h) was 208055556, the “viral titer … individual replicate” value ([1]; 72h) was 35000000 and 20000000 and 27500000 and 320000000 and 390000000 and 350000000 and 250000000 and 280000000 and 200000000 and the “viral titer of culture media, ave” value ([2]; 12h) was 24444.4. The “viral titer … individual replicate” value ([2]; 12h) was 70000 and 30000 (2×) and 10000 (3×) and 20000 (3×), the “viral titer of culture media, ave” value ([2]; 24h) was 30000 and the “viral titer … individual replicate” value ([2]; 24h) was 60000 and 50000 (2×) and 20000 (3×) and 10000 (2×) and 30000. The “viral titer of culture media, ave” value ([2]; 48h) was 41111.1, the “viral titer … individual replicate” value ([2]; 48h) was 40000 (3×) and 30000 (2×) and 80000 (2×) and 20000 and 10000 and the “viral titer of culture media, ave” value ([2]; 72h) was 58888.9. For the same compound, the “viral titer … individual replicate” value ([2]; 72h) was 30000 (2×) and 40000 and 20000 and 10000 (2×) and 250000 and 80000 and 60000.
With `C=C[C@]1(C)CC[C@H](C(C)(C)O)[C@@H](c2ccc(O)cc2)C1` [Cyclo. C] the “MTT, DMSO as 100 (DMSOを 100として), ave” value ([3]; 0.78uM) was 97.7369, the “MTT, DMSO as 100 (DMSOを 100として), ave” value ([3]; 1.56uM) was 116.194 and the “MTT, DMSO as 100 (DMSOを 100として), ave” value ([3]; 3.125uM) was 124.106. For the same compound, the “MTT 72h AVE (DMSO = 100)” value ([3]; 6.25 (uM)) was 130.219, the “MTT 72h AVE (DMSO = 100)” value ([3]; 12.5 (uM)) was 123.122 and the “MTT 72h AVE (DMSO = 100)” value ([3]; 25 (uM)) was 141.455. For the same compound, the “MTT 72h AVE (DMSO = 100)” value ([3]; 50 (uM)) was 116.495, the “MTT 72h AVE (DMSO = 100)” value ([3]; 100 (uM)) was 142.83 and the “MTT 24h, AVE (DMSO as 100)” value ([3]; 0.78 uM) was 97.4262. For the same compound, the “MTT 24h, AVE (DMSO as 100)” value ([3]; 1.56 uM) was 89.4582, the “MTT 24h, 570-650nm, DMSO as 100, single replicate” value (from here on “MTT 24h … single replicate”) ([3]; 3.125uM) was 98.8583 and 80.6936 and 68.9227 and 107.532 and 92.5261 and the “MTT 24h, 570-650nm, DMSO as 100, ave” value ([3]; 3.125uM) was 89.7067. For the same compound, the “MTT 24h … single replicate” value ([3]; 6.25uM) was 105.442 and 92.9243 and 77.243 and 111.801 and 97.5139, the “MTT 24h, 570-650nm, DMSO as 100, ave” value ([3]; 6.25uM) was 96.9849 and the “MTT 24h … single replicate” value ([3]; 12.5uM) was 112.407 and 88.505 and 78.5484 and 110.111 and 102.316. For the same compound, the “MTT 24h, 570-650nm, DMSO as 100, ave” value ([3]; 12.5uM) was 98.3774, the “MTT 24h … single replicate” value ([3]; 25uM) was 89.9468 and 93.8621 and 86.7762 and 109.435 and 109.619 and the “MTT 24h, 570-650nm, DMSO as 100, ave” value ([3]; 25uM) was 97.9279. For the same compound, the “MTT 24h … single replicate” value ([3]; 50uM) was 107.424 and 104.395 and 78.3927 and 112.047 and 113.734, the “MTT 24h, 570-650nm, DMSO as 100, ave” value ([3]; 50uM) was 103.198 and the “MTT 24h … single replicate” value ([3]; 100uM) was 113.671 and 119.568 and 104.628 and 127.474 and 126.723. The “MTT 24h, 570-650nm, DMSO as 100, ave” value ([3]; 100uM) was 118.413, the “570-650nm (MTT absorbance, single wells)” value ([3]; 0.78uM) was 0.9938 and 0.7395 and 0.7311 and 0.6372 and 0.8862 and 0.7504 and the “570-650nm (MTT absorbance, single wells)” value ([3]; 1.56uM) was 0.9464 and 0.9776 and 0.7533 and 0.5791 and 0.9528 and 0.9569. For the same compound, the “570-650nm (MTT absorbance, single wells)” value ([3]; 3.13uM (3.125uM in summary block)) was 0.9669 and 0.8575 and 0.7479 and 0.8256 and 0.9 and 0.8489, the “570-650nm ave (mean MTT absorbance of 5 wells)” value (“570-650nm ave” for short) ([3]; 6.25uM) was 0.8907 and the “570-650nm (MTT absorbance, single wells)” value ([3]; 6.25uM) was 0.8518 and 0.8346 and 0.7398 and 1.0173 and 1.01 and 0.9632. For the same compound, the “MTT absorbance with DMSO as 100 (DMSOを 100として), single wells” value (“MTT absorbance with DMSO” below) ([3]; 6.25uM) was 122.018 and 108.158 and 148.728 and 147.661 and 124.532, the “570-650nm ave” value ([3]; 12.5uM) was 0.98 and the “570-650nm (MTT absorbance, single wells)” value ([3]; 12.5uM) was 0.9561 and 0.8827 and 0.8467 and 1.0013 and 1.1241 and 1.0452. For the same compound, the “MTT absorbance with DMSO” value ([3]; 12.5uM) was 125.798 and 106.375 and 131.313 and 141.226 and 110.898, the “570-650nm ave” value ([3]; 25uM) was 1.064 and the “570-650nm (MTT absorbance, single wells)” value ([3]; 25uM) was 0.9926 and 0.9592 and 0.9724 and 1.0619 and 1.1012 and 1.2247. For the same compound, the “MTT absorbance with DMSO” value ([3]; 25uM) was 141.191 and 129.291 and 162.837 and 146.417 and 127.536, the “570-650nm ave” value ([3]; 50uM) was 1.063 and the “570-650nm (MTT absorbance, single wells)” value ([3]; 50uM) was 1.1675 and 1.0763 and 1.0296 and 0.8397 and 1.1252 and 1.245. The “MTT absorbance with DMSO” value ([3]; 50uM) was 92.0098 and 112.818 and 136.42 and 123.293 and 117.935, the “570-650nm ave” value ([3]; 100uM) was 1.345 and the “570-650nm (MTT absorbance, single wells)” value ([3]; 100uM) was 1.4551 and 1.3837 and 1.3254 and 1.1438 and 1.3954 and 1.4754. The “MTT absorbance with DMSO” value ([3]; 100uM) was 121.487 and 140.775 and 156.707 and 148.21 and 146.968.
